Results reported in PMC10254852, “Design, Synthesis and Anticancer Evaluation of Nitroimidazole Radiosensitisers” (Molecules, 2023).
In brackets after ≈: the same amount, converted by molar mass. Where two headings read alike, the source gives them in different places.

Legend:
[1] = Solubility in αMEM culture medium (HPLC of saturated solutions); format: physicochemical; settings: αMEM culture medium with 5% foetal calf serum and 1% DMSO, plasma or biological fluid, kinetic from dmso stock, α-MEM culture medium containing 5% foetal calf serum, 37 °C
[2] = Stability in αMEM culture medium (HPLC after 24 h); format: physicochemical; settings: after 24 h incubation at 37 °C
Description: The stability of the same solutions after 24 h incubation at 37 °C was measured by HPLC analysis.

[3] = tested on: HCT116/54C cells; test: In vitro cytotoxicity, 4 h exposure oxic/anoxic, 5-day regrowth, sulforhodamine B; format: cell-based, human; settings: HCT116/54C; for HCR: IC50(oxic)/IC50(anoxic); for IC50: Homo sapiens, 4 h exposure, mean ± SEM, n = 3–4
Source text: (§1) This allowed derivation of hypoxia cytotoxicity ratios (HCR) as IC50(oxic)/IC50(anoxic) in an HCT116 subclone HCT116/54C and two HNSCC cell lines, FaDu and UT-SCC-74B (Table 2).
(§2) HCT116/54C is an HCT116 subline that originated from a mixed culture with UT-SCC-54C cells, which was supplied alongside UT-SCC-74B by Prof. Bradly Wouters (University Health Network, Toronto, ON, Canada). HCT116/54C and UT-SCC-74B cells were passaged in minimum essential media (MEM, ThermoFisher Scientific, Waltham, MA, USA) with 10% foetal calf serum (FCS, Moregate Biotech, Hamilton, New Zealand), 4.5 mg/mL D-glucose (Sigma-Aldrich, St. Louis, MO, USA) and 20 mM HEPES (Sigma-Aldrich). FaDu cells were sourced from American Type Culture Collection and cultured in αMEM (ThermoFisher Scientific) with 10% FCS. All cell lines were confirmed mycoplasma-free by PlasmoTest (InvivoGen, San Diego, CA, USA) and were derived from STR-authenticated cryopreserved stocks. Log-phase cells were seeded into 96-well plates at 800 cells/well for HCT116/54C and 1500 cells/well for FaDu. […] After drug washout, cells were grown and stained as for the oxic IC50 assays. The hypoxic cytotoxicity ratio HCR was determined as HCR = IC50(oxic)/IC50(anoxic).

[4] = tested on: UT-SCC-74B cells; test: as above; format: cell-based, human; settings: for IC50: Homo sapiens, 4 h exposure, mean ± SEM; for HCR: IC50(oxic)/IC50(anoxic)
Source text: as §1, §2

[5] = tested on: FaDu cells; test: as above; format: cell-based; settings: for IC50: Homo sapiens, 4 h exposure, mean ± SEM; for HCR: IC50(oxic)/IC50(anoxic)
Source text: as §1, §2

[6] = tested on: HCT116/54C cells; test: In vitro radiosensitisation under anoxia, clonogenic survival; format: cell-based, human; settings: compound 1 mM, radiation dose for 1% survival/radiation dose for 1% survival with compound, mean ± SEM
Description: Next, we evaluated in vitro radiosensitisation by using a representative subset of nitroimidazole compounds in HCT116/54C cells with a clonogenic survival endpoint. Radiosensitisation was determined by treating cells under anoxia with a range of radiation doses alone and with compounds at equimolar doses (1 mM). Sensitiser enhancement ratios (SER) were calculated as the ratio of radiation dose required for 1% clonogenic survival alone or with compound (Table 3).
Cells were seeded onto 96-well plates at 10^5 cells per well and allowed to attach for 2 h. […] The plates were irradiated (Eldorado 78 ^60Co teletherapy unit, ~2 Gy/min) with 15 Gy under anoxia at room temperature for SR experiments. A metal wedge placed on the top of the metal chamber was used to achieve a graduated radiation dose across the plate, varying from 7 to 29 Gy, calibrated by Fricke dosimetry with ammonium thiocyanate as previously described for SER experiments. The control plate (compound alone, no radiation) was left inside the anaerobic chamber at room temperature during the irradiation period. After treatment, the cells were trypsinized and suspended in usual media + 1% penicillin-streptomycin (ThermoFisher Scientific), and 10-fold serial dilutions were plated for clonogenic survival. After 10 days, plates were stained with methylene blue (2 g/L in EtOH/H2O, 1:1 v/v) and colonies with more than 50 cells were counted. The surviving fraction (SF) was determined as: SF = PE(irradiated)/PE(control) where the plating efficiency (PE) = (No. of colonies)/(No. of cells plated). SF was plotted against radiation dose. Survival ratios (SR) were calculated: SR = (cell survival with radiation)/(cell survival with drug + radiation). Sensitizer enhancement ratios (SER) were calculated: SER = (radiation dose for 1% survival without compound)/(radiation dose for 1% survival with compound).

[7] = set-up: method as in PMID 29253343; settings: comparison values for earlier alcohols; cited from earlier work
[8] = tested on: HCT116/54C tumours; test: Tumour radiosensitisation: ex vivo clonogenic assay; format: in vivo, NIH-III mice
Description: (§3) Specific pathogen-free six- to eight-week-old female NIH-III mice, bred in the Vernon Jansen Unit, University of Auckland, were used for animal experiments. Animals had ad libitum access to food and water and were maintained in microisolator cages on a 12 h light/dark cycle. All treatments were administered by i.v. injection at a dose of 2.2 mmol/kg and injection volume of 10 mL/kg. Compounds 2, 34 and 38 were administered as solutions in saline containing 1% DMSO or for 9–12 as solutions in saline containing 2 molar equivalents of NaHCO3. Control animals received an i.v. injection of saline at 10 mL/kg. All animal experiments were conducted under the auspices of the University of Auckland Animal Ethics Committee (approval 1781).
(§4) Compounds were evaluated for in vivo radiosensitisation of hypoxic cells in HCT116/54C and UT-SCC-74B human tumour xenografts using clonogenic survival as an endpoint, using previously report methods. Tumours were grown subcutaneously on the flanks of NIH-III mice by injecting 5 × 10^6 HCT116/54C cells or UT-SCC-74B cells. Once tumours reached a volume of approximately 250 mm^3, mice were randomly assigned to 4 treatment groups and treated with: (A) vehicle control, (B) 10 Gy RAD only, (C) sensitiser only, or (D) sensitiser given before 10 Gy RAD. Drugs were administered as a single i.v. dose at 2.2 mmol/kg. […] Tumours were excised 18 h after treatment, and tumour cells were dissociated enzymatically and plated to determine the number of surviving (clonogenic) cells per gram of tumour tissue. SF and SR were calculated as described above. Statistical significance of drug effects was tested using one-way ANOVA with Sidak tests for multiple comparisons vs. radiation alone (Table 5).

[9] = tested on: UT-SCC-74B tumours; test: as above; format: in vivo, NIH-III mice
Description: as §3, §4

[10] = Tolerability at maximum achievable dose, i.v.; format: in vivo; settings: i.v. injection, NIH-III mice
Source text: The most promising 2-nitroimidazole 34 and 5-nitroimidazole 38 compounds were selected for in vivo evaluation on the basis of solubility, in vitro cytotoxicity and radiosensitisation data. These compounds were both well tolerated by i.v. injection in NIH-III mice at their maximum achievable dose (MAD) of 2.2 mmol/kg. This MAD was also achieved for some of our earlier compounds, but only when we employed a phosphate prodrug strategy owing to their poor solubility. […] The Cmax and AUC exceeded that achieved for earlier phosphate prodrugs 9–12, but was less than 2. On this basis we advanced both morpholine analogues into in vivo radiosensitisation studies.
as §3

[11] = tested on: HCT116/54C tumour xenografts; test: Tumour growth inhibition in combination with radiation; format: in vivo, NIH-III mice; settings: HCT116/54C tumours
Description: as §3
Compounds were evaluated for their ability to inhibit tumour growth in combination with a single dose of radiation (10 Gy) in HCT116/54C or UT-SCC-74B tumour xenografts on the backs of NIH-III mice. In addition, a fractionated radiation schedule (5 Gy on Days 1, 7 and 14) was explored in HCT116/54C tumour xenografts. Mice were randomly assigned to 4 treatment groups and treated with: (A) vehicle control, (B) 10 Gy RAD only, (C) sensitiser only, or (D) sensitiser given 10 min before 10 Gy RAD. Drugs were administered by i.v. injection at 2.2 mmol/kg either as a single dose or three doses on Days 1, 7 and 14 in the fractionated study. Treatment commenced when the average tumour size reached approximately 250 mm^3, and tumour size was measured until study endpoint. Mice were placed in a custom-built lead-shielded jig that allowed irradiation of the whole tumour but shielded the mouse from radiation. Survival analysis represented the time taken for tumours to increase in relative tumour volume by 4× from the start of treatment (RTV^4). The significance of differences in activity between the groups was assessed by log-rank with Holm–Sidak multiple comparison analysis.

[12] = anoxic, n = 3–4, read-out: IC50 Anoxic
[13] = oxic, n = 3–4, read-out: IC50 Oxic
[14] = 2.2 mmol/kg i.v. 5 min prior to 10 Gy radiation, surviving fraction after radiation/surviving fraction after drug + radiation
[15] = 2.2 mmol/kg i.v. + 10 Gy, one-way ANOVA
[16] = 2.2 mmol/kg i.v., 10 Gy, mechanism experiment (Figure 3)

O=[N+]([O-])c1nccn1CCNS(=O)(=O)CCO [Compound 17, 2-Hydroxy-N-(2-(2-nitro-1H-imidazol-1-yl)ethyl)ethane-1-sulfonamide]
solubility [1]: > 101 mM
% Stability in αMEM [2]: 100.0%
HCR [3]: >5.3
IC50 ([3]; anoxic, read-out: IC50 Anoxic): 3.2 ± 0.2 mM
IC50 ([3]; oxic, read-out: IC50 Oxic): > 17 mM
IC50 [4, 12]: 2.9 ± 0.5 mM
IC50 [4, 13]: > 20 mM
HCR [4]: >6.8
IC50 [5, 12]: 2.8 ± 0.6 mM
IC50 [5, 13]: > 18 mM
HCR [5]: >6.4
SER at 1 mM [6]: 1.35 ± 0.02
melting point: 124 to 127 °C

O=[N+]([O-])c1nccn1CS(=O)(=O)NC(CO)C(O)CO (centres unmarked) [Compound 14, 1-(2-Nitro-1H-imidazol-1-yl)-N-(1,3,4-trihydroxybutan-2-yl)methanesulfonamide]
solubility [1]: 95.8 mM (≈ 29.7 mg/mL)
% Stability in αMEM [2]: 98.5%
HCR [3]: 1.3
IC50 ([3]; anoxic, read-out: IC50 Anoxic): 12.6 ± 0.5 mM
IC50 ([3]; oxic, read-out: IC50 Oxic): 16.4 ± 3 mM
IC50 [5, 12]: 7.9 ± 1.1 mM
IC50 [5, 13]: 5.3 ± 1.1 mM
HCR [5]: 0.67
SER at 1 mM [6]: 1.00 ± 0.00
melting point: 128 to 131 °C

O=[N+]([O-])c1nccn1CS(=O)(=O)NCC(O)CO (centres unmarked) [Compound 13, N-(2,3-Dihydroxypropyl)-1-(2-nitro-1H-imidazol-1-yl)methanesulfonamide]
solubility [1]: 110 mM (≈ 30.8 mg/mL)
% Stability in αMEM [2]: 99.3%
HCR [3]: 3.5
IC50 ([3]; anoxic, read-out: IC50 Anoxic): 4.1 ± 0.1 mM
IC50 ([3]; oxic, read-out: IC50 Oxic): 14.5 ± 2.9 mM
IC50 [4, 12]: 2.6 ± 0.1 mM
IC50 [4, 13]: 10.3 ± 1.7 mM
HCR [4]: 4.0
IC50 [5, 12]: 4.3 ± 0.3 mM
IC50 [5, 13]: 8.7 ± 1.1 mM
HCR [5]: 2.0
SER at 1 mM [6]: 1.00 ± 0.00
melting point: 127 to 129 °C

O=[N+]([O-])c1nccn1CS(=O)(=O)NCCO [Compound 5]
HCR [3]: >21
IC50 ([3]; anoxic, read-out: IC50 Anoxic): 0.29 ± 0.02 mM
IC50 ([3]; oxic, read-out: IC50 Oxic): > 6.2 mM
IC50 [4, 12]: 0.24 ± 0.04 mM
IC50 [4, 13]: 4.3 ± 0.8 mM
HCR [4]: 17.7
IC50 [5, 12]: 0.23 ± 0.01 mM
IC50 [5, 13]: 2.3 ± 0.2 mM
HCR [5]: 10.0
SER at 1 mM [6]: 1.72 ± 0.06
aqueous solubility [7]: 18 mM (≈ 4.5 mg/mL)

O=[N+]([O-])c1cncn1CS(=O)(=O)NCCN1CCOCC1 [Compound 38]
HCR [3]: 11.2
IC50 ([3]; anoxic, read-out: IC50 Anoxic): 1.2 ± 0.1 mM
IC50 ([3]; oxic, read-out: IC50 Oxic): 13.7 ± 2 mM
IC50 [4, 12]: 1.5 ± 0.3 mM
IC50 [4, 13]: 13.1 ± 2.8 mM
HCR [4]: 8.6
IC50 [5, 12]: 1.8 ± 0.1 mM
IC50 [5, 13]: 10.6 ± 0.6 mM
HCR [5]: 5.8
SER at 1 mM [6]: 1.39 ± 0.01
Sensitisation Ratio [8, 14]: 3.43
enhancement of tumour killing of radiotherapy (RAD vs drug + RAD) [8, 15]: significantly enhanced the tumour killing of radiotherapy
SR, drug given 5 min before radiation [8, 16]: 8.26
SR, drug given 20 min after radiation [8, 16]: 1.38
Sensitisation Ratio [9, 14]: 11.5
enhancement of tumour cell killing by radiotherapy (RAD vs drug + RAD) [9, 15]: significantly enhanced tumour cell killing by radiotherapy
maximum achievable dose (MAD), well tolerated [10]: 2.2 mmol/kg
survival (time to RTV^4) vs radiation alone ([11]; fractionated radiation, p < 0.05): significantly increased survival compared to radiation alone
tumour growth delay with fractionated radiation ([11]; qw × 3, 5 Gy, 2.2 mmol/kg i.v.): delayed tumour growth relative to radiation alone

O=[N+]([O-])c1cncn1CS(=O)(=O)NCCO [Compound 7]
HCR [3]: 3.3
IC50 ([3]; anoxic, read-out: IC50 Anoxic): 1.4 ± 0.1 mM
IC50 ([3]; oxic, read-out: IC50 Oxic): 4.6 ± 0.3 mM
IC50 [4, 12]: 1.3 ± 0.04 mM
IC50 [4, 13]: 4.2 ± 0.9 mM
HCR [4]: 3.3
IC50 [5, 12]: 1.4 ± 0.02 mM
IC50 [5, 13]: 5.4 ± 0.7 mM
HCR [5]: 4.0
SER at 1 mM [6]: 1.41 ± 0.02
aqueous solubility [7]: 23 mM (≈ 5.76 mg/mL)
